Source: PMC11025159 (Journal of Translational Medicine, 2024)

Experiments:
[1] = Body weight, biochemical and haematological parameters in DHT-induced AGA mice (0.5% testosterone then topical treatment); format: in vivo, C57BL/6J mice; details: for LYMPH: unit assumed
Method: The experiments were performed on C57BL/6 J and Athymic nude mice (NU/J Foxn1^nu) of 6–7 weeks of age obtained from Animal House Facility, CSIR-Indian Institute of Integrative Medicine (IIIM), Jammu, India. […] The animals were provided with ad libitum feed (standard pellet diet) and autoclaved RO water throughout the study. The body weight of mice was measured after seven days before treatment.
(§1) C57BL/6 J mice (male) were obtained from CSIR-IIIM Animal House at 7 weeks of age. We used a DHT-induced AGA mice model for this study. […] At the end of the experiment, skin samples were collected and preserved in 10% neutral buffered formalin for tissue sectioning and staining using haematoxylin and eosin (H&E). The histopathological examinations were performed under the 10× and 40× objectives of light microscope (Magnus, Mx21i).
Every two weeks during the experimental period, mice were anesthetized, and the blood samples were collected into tubes containing heparin sodium to detect the total and differential white blood cells, haemoglobin, red blood cell, platelet count, mean corpuscular haemoglobin, mean corpuscular volume, red blood cell volume, mean platelet volume, and analyzed using an automated haematology analyzer (Model: XT1800i; Make: Sysmex).
Every two weeks during the experimental period, mice and rats were anesthetized, and blood samples were collected into non-heparinized tubes and then centrifuged at 1000 rpm at 4 °C for 10 min to obtain the serum. The biochemical parameters, including total protein, aspartate aminotransferase, alanine aminotransferase, total protein, albumin, total bilirubin, direct bilirubin, glucose, total cholesterol, triglyceride, low-density lipoprotein, high-density lipoprotein, creatinine, and uric acid, were measured using an automatic biochemical analyzer (Model: EM360; Make: Erba Mannheim).

DHT-induced AGA mice = assay: Hair regrowth in DHT-induced AGA mice model (topical, 28 days); format: in vivo, C57BL/6J mice
Method: as §1
Dorsal skin samples from C57BL/6J mice were shaved and collected for histological and molecular analyses on Days 7, 14, 21, and 28. The full-thickness skin tissue was fixed in a 10% neutral buffered formalin solution (Sigma) overnight and subsequently dehydrated for embedding in paraffin. Haematoxylin and eosin (H&E) staining was performed on the skin tissue, and digital photomicrographs were taken from the representative areas using light microscope (Magnus, Mx21i).
The quantification of anagen initiation was assessed by observing changes in the dorsal skin colour of C57BL/6 mice, a phenomenon closely linked to the onset of the anagen phase. Anagen quantification was done by employing threshold analysis on dorsal skin colouration using ImageJ. The darkening of the skin, attributed to melanogenesis, strongly correlates with the progression of anagen. This analysis is visually depicted as a heatmap using GraphPad Prism 9.5 Software.

Molecule `CCS(=O)(=O)N1CC(CC#N)(n2cc(-c3ncnc4[nH]ccc34)cn2)C1` [Baricitinib, baricitinib, reference compound] has an ALP ([1]; Day 21, 0.02 mg/Kg) of 108 U/L, an ALT/SGPT ([1]; Day 21, 0.02 mg/Kg) of 74 U/L and an AST/SGOT ([1]; Day 21, 0.02 mg/Kg) of 143 U/L. For the same molecule, the Cholesterol ([1]; Day 21, 0.02 mg/Kg) was 171 mg/dL, the Creatine ([1]; Day 21, 0.02 mg/Kg) was 0.72 mg/dL and the HCT ([1]; Day 21, 0.02 mg/Kg) was 45%. It also gave an HDL ([1]; Day 21, 0.02 mg/Kg) of 105 mg/dL, an LDL ([1]; Day 21, 0.02 mg/Kg) of 101 mg/dL and an MCHC ([1]; Day 21, 0.02 mg/Kg) of 28 g/dL. For the same molecule, the MCV ([1]; Day 21, 0.02 mg/Kg) was 52 fL, the NEUT ([1]; Day 21, 0.02 mg/Kg) was 30.5% and the PLT ([1]; Day 21, 0.02 mg/Kg) was 946 103/μl. For the same molecule, the RBC ([1]; Day 21, 0.02 mg/Kg) was 8.2 1012/l, the Total protein ([1]; Day 21, 0.02 mg/Kg) was 5.0 g/dL and the Triglyceride ([1]; Day 21, 0.02 mg/Kg) was 98 mg/dL. The Urea ([1]; Day 21, 0.02 mg/Kg) was 69 mg/dL, the WBC ([1]; Day 21, 0.02 mg/Kg) was 4.3 103/μl and the LYMPH ([1]; Day 21, 0.02 mg/Kg) was 67.4%. It also gave an ALP ([1]; Day 21, 0.04 mg/Kg) of 99 U/L, an ALT/SGPT ([1]; Day 21, 0.04 mg/Kg) of 64 U/L and an AST/SGOT ([1]; Day 21, 0.04 mg/Kg) of 98 U/L. For the same molecule, the Cholesterol ([1]; Day 21, 0.04 mg/Kg) was 171 mg/dL, the Creatine ([1]; Day 21, 0.04 mg/Kg) was 0.69 mg/dL and the HCT ([1]; Day 21, 0.04 mg/Kg) was 43%. The HDL ([1]; Day 21, 0.04 mg/Kg) was 122 mg/dL, the LDL ([1]; Day 21, 0.04 mg/Kg) was 106 mg/dL and the MCHC ([1]; Day 21, 0.04 mg/Kg) was 29 g/dL. The MCV ([1]; Day 21, 0.04 mg/Kg) was 52 fL, the NEUT ([1]; Day 21, 0.04 mg/Kg) was 30.5% and the PLT ([1]; Day 21, 0.04 mg/Kg) was 1082 103/μl. For the same molecule, the RBC ([1]; Day 21, 0.04 mg/Kg) was 8.6 1012/l, the Total protein ([1]; Day 21, 0.04 mg/Kg) was 4.9 g/dL and the Triglyceride ([1]; Day 21, 0.04 mg/Kg) was 139 mg/dL. For the same molecule, the Urea ([1]; Day 21, 0.04 mg/Kg) was 54 mg/dL, the WBC ([1]; Day 21, 0.04 mg/Kg) was 3.6 103/μl and the LYMPH ([1]; Day 21, 0.04 mg/Kg) was 67.4%. The ALP ([1]; Day 21, 0.1mg/Kg) was 144 U/L, the ALT/SGPT ([1]; Day 21, 0.1mg/Kg) was 92 U/L and the AST/SGOT ([1]; Day 21, 0.1mg/Kg) was 104 U/L. The Cholesterol ([1]; Day 21, 0.1mg/Kg) was 173 mg/dL, the Creatine ([1]; Day 21, 0.1mg/Kg) was 0.48 mg/dL and the HCT ([1]; Day 21, 0.1mg/Kg) was 48%. The HDL ([1]; Day 21, 0.1mg/Kg) was 108 mg/dL, the LDL ([1]; Day 21, 0.1mg/Kg) was 100 mg/dL and the MCHC ([1]; Day 21, 0.1mg/Kg) was 29 g/dL. For the same molecule, the MCV ([1]; Day 21, 0.1mg/Kg) was 50 fL, the NEUT ([1]; Day 21, 0.1mg/Kg) was 26.8% and the PLT ([1]; Day 21, 0.1mg/Kg) was 1149 103/μl. For the same molecule, the RBC ([1]; Day 21, 0.1mg/Kg) was 9.6 1012/l, the Total protein ([1]; Day 21, 0.1mg/Kg) was 5.0 g/dL and the Triglyceride ([1]; Day 21, 0.1mg/Kg) was 119 mg/dL. The Urea ([1]; Day 21, 0.1mg/Kg) was 51 mg/dL, the WBC ([1]; Day 21, 0.1mg/Kg) was 6.4 103/μl and the LYMPH ([1]; Day 21, 0.1mg/Kg) was 71.3%. It also gave an ALP ([1]; Day 28, 0.02 mg/Kg) of 159 U/L, an ALT/SGPT ([1]; Day 28, 0.02 mg/Kg) of 71 U/L and an AST/SGOT ([1]; Day 28, 0.02 mg/Kg) of 129 U/L. It also gave a Cholesterol ([1]; Day 28, 0.02 mg/Kg) of 213 mg/dL, a Creatine ([1]; Day 28, 0.02 mg/Kg) of 0.16 mg/dL and an HCT ([1]; Day 28, 0.02 mg/Kg) of 48.0%. The HDL ([1]; Day 28, 0.02 mg/Kg) was 173 mg/dL, the HGB ([1]; Day 28, 0.02 mg/Kg) was 15 g/dL and the LDL ([1]; Day 28, 0.02 mg/Kg) was 98 mg/dL. The MCHC ([1]; Day 28, 0.02 mg/Kg) was 30.0 g/dL, the MCV ([1]; Day 28, 0.02 mg/Kg) was 62 fL and the PLT ([1]; Day 28, 0.02 mg/Kg) was 1724 103/μl. For the same molecule, the RBC ([1]; Day 28, 0.02 mg/Kg) was 7.8 106/μl, the Total protein ([1]; Day 28, 0.02 mg/Kg) was 5.8 g/dL and the Triglyceride ([1]; Day 28, 0.02 mg/Kg) was 90 mg/dL. The Urea ([1]; Day 28, 0.02 mg/Kg) was 60 mg/dL, the WBC ([1]; Day 28, 0.02 mg/Kg) was 6.3 103/μl and the ALP ([1]; Day 28, 0.04 mg/Kg) was 174 U/L. For the same molecule, the ALT/SGPT ([1]; Day 28, 0.04 mg/Kg) was 88 U/L, the AST/SGOT ([1]; Day 28, 0.04 mg/Kg) was 123 U/L and the Cholesterol ([1]; Day 28, 0.04 mg/Kg) was 182 mg/dL. For the same molecule, the Creatine ([1]; Day 28, 0.04 mg/Kg) was 0.11 mg/dL, the HCT ([1]; Day 28, 0.04 mg/Kg) was 48.0% and the HDL ([1]; Day 28, 0.04 mg/Kg) was 143 mg/dL. The HGB ([1]; Day 28, 0.04 mg/Kg) was 14 g/dL, the LDL ([1]; Day 28, 0.04 mg/Kg) was 85 mg/dL and the MCHC ([1]; Day 28, 0.04 mg/Kg) was 29.0 g/dL. The MCV ([1]; Day 28, 0.04 mg/Kg) was 60 fL, the PLT ([1]; Day 28, 0.04 mg/Kg) was 1427 103/μl and the RBC ([1]; Day 28, 0.04 mg/Kg) was 8.0 106/μl. The Total protein ([1]; Day 28, 0.04 mg/Kg) was 6.3 g/dL, the Triglyceride ([1]; Day 28, 0.04 mg/Kg) was 123 mg/dL and the Urea ([1]; Day 28, 0.04 mg/Kg) was 66 mg/dL. The WBC ([1]; Day 28, 0.04 mg/Kg) was 3.1 103/μl, the ALP ([1]; Day 28, 0.1mg/Kg) was 184 U/L and the ALT/SGPT ([1]; Day 28, 0.1mg/Kg) was 74 U/L. For the same molecule, the AST/SGOT ([1]; Day 28, 0.1mg/Kg) was 86 U/L, the Cholesterol ([1]; Day 28, 0.1mg/Kg) was 164 mg/dL and the Creatine ([1]; Day 28, 0.1mg/Kg) was 0.13 mg/dL. The HCT ([1]; Day 28, 0.1mg/Kg) was 43.0%, the HDL ([1]; Day 28, 0.1mg/Kg) was 134 mg/dL and the HGB ([1]; Day 28, 0.1mg/Kg) was 14 g/dL. For the same molecule, the LDL ([1]; Day 28, 0.1mg/Kg) was 78 mg/dL, the MCHC ([1]; Day 28, 0.1mg/Kg) was 33.0 g/dL and the MCV ([1]; Day 28, 0.1mg/Kg) was 67 fL. For the same molecule, the PLT ([1]; Day 28, 0.1mg/Kg) was 1394 103/μl, the RBC ([1]; Day 28, 0.1mg/Kg) was 6.4 106/μl and the Total protein ([1]; Day 28, 0.1mg/Kg) was 6.2 g/dL. The Triglyceride ([1]; Day 28, 0.1mg/Kg) was 72 mg/dL, the Urea ([1]; Day 28, 0.1mg/Kg) was 53 mg/dL and the WBC ([1]; Day 28, 0.1mg/Kg) was 3.9 103/μl. The “H&E skin histopathology finding” value (DHT-induced AGA mice; 0.04mg/kg, Days 7, 14, 21, 28) was “Minimal degree of epidermal thickening with increased distinct hair follicles”, the “hair follicle phase (histopathology)” value (DHT-induced AGA mice; skin samples days 7, 14, 21, 28) was “at least in the anagen IIIc-IV phase” and the “entry into the anagen phase” value (DHT-induced AGA mice; topical once a day in presence of testosterone) was “rapid entry into the anagen phase within seven days of treatment”.
